This note sets out measurements from patent publication US20180235993A1 (priority 2000, published 2018).

For data set [1], the system named is Human bone marrow cells (CFU-GM). Put plainly: Human bone marrow toxicity, CFU-GM clonogenic assay. As to conditions: read-out: IC50 CFU-GM. Format: cell-based. From the text: (§1) Human bone marrow cells were collected from normal healthy volunteers and the mononuclear population was separated by Ficoll-Hypaque gradient centrifugation as described previously by Sommadossi J-P, Carlisle R. “Toxicity of 3′-azido-3′-deoxythymidine and 9-(1,3-dihydroxy-2-propoxymethyl)guanine for normal human hematopoietic progenitor cells in vitro” Antimicrobial Agents and Chemotherapy 1987; 31:452-454; and Sommadossi J-P, Schinazi R F, Chu C K, Xie M-Y. “Comparison of cytotoxicity of the (−)- and (+)-enantiomer of 2′,3′-dideoxy-3′-thiacytidine in normal human bone marrow progenitor cells” Biochemical Pharmacology 1992; 44:1921-1925. The culture assays for CFU-GM and BFU-E were performed using a bilayer soft agar or methylcellulose method. Drugs were diluted in tissue culture medium and filtered. After 14 to 18 days at 37° C. in a humidified atmosphere of 5% CO2 in air, colonies of greater than 50 cells were counted using an inverted microscope. The results in Table 4 are presented as the percent inhibition of colony formation in the presence of drug compared to solvent control cultures.

In data set [2] the test system is Human bone marrow cells (BFU-E). Description: Human bone marrow toxicity, BFU-E clonogenic assay. The conditions noted are these: human bone marrow colony formation, 14 to 18 days. Format: cell-based.
Text: as §1

The nature of data set [3]: Cytotoxicity assay (sulforhodamine B, CC50), MDBK. It is filed as cell-based. As to conditions: cattle; MDBK cells, 4 days incubation. As for the experimental part:
(§2) Cells were seeded at a rate of between 5×10^3 and 5×10^4/well into 96-well plates in growth medium overnight at 37° C. in a humidified CO2 (5%) atmosphere. New growth medium containing serial dilutions of the drugs was then added. After incubation for 4 days, cultures were fixed in 50% TCA and stained with sulforhodamineB. The optical density was read at 550 nm. The cytotoxic concentration was expressed as the concentration required to reduce the cell number by 50% (CC50).

Data set [4] can be described thus: Cytotoxicity assay (sulforhodamine B, CC50), Human Hepatoma. Format: cell-based. The conditions noted are these: human; for CC50 at 4 days: 4 days incubation; for EC50 at 4 days: Table 13. Here is the method:
as §2

A further data set deals with BVDV (strain NADL). Put plainly: Cell Protection Assay (CPA). Format: cell-based, Bovine Viral Diarrhea virus. Here is the method:
The assay was performed essentially as described by Baginski, S. G.; Pevear, D. C.; Seipel, M.; Sun, S. C. C.; Benetatos, C. A.; Chunduru, S. K.; Rice, C. M. and M. S. Collett “Mechanism of action of a pestivirus antiviral compound” PNAS USA 2000, 97(14), 7981-7986. MDBK cells (ATCC) were seeded onto 96-well culture plates (4,000 cells per well) 24 hours before use. After infection with BVDV (strain NADL, ATCC) at a multiplicity of infection (MOI) of 0.02 plaque forming units (PFU) per cell, serial dilutions of test compounds were added to both infected and uninfected cells in a final concentration of 0.5% DMSO in growth medium. Each dilution was tested in quadruplicate. Cell densities and virus inocula were adjusted to ensure continuous cell growth throughout the experiment and to achieve more than 90% virus-induced cell destruction in the untreated controls after four days post-infection. After four days, plates were fixed with 50% TCA and stained with sulforhodamine B. The optical density of the wells was read in a microplate reader at 550 nm. The 50% effective concentration (EC50) values were defined as the compound concentration that achieved 50% reduction of cytopathic effect of the virus. FIGS. 4 and 5 provide a graphical illustration of the methodology used to arrive at the 50% effective concentration (EC50) values for β-D-2′-CH3-riboG and ribavirin. FIG. 6 compares the results of the CPA for β-D-2′-CH3-riboG, β-D-2′-CH3-riboC, riboU, β-D-2′-CH3-riboA and ribavirin

The next data set has as its system BVDV. Description: Plaque Reduction Assay. It is filed as cell-based, Bovine Viral Diarrhea virus. As for the experimental part:
For each compound the effective concentration was determined in duplicate 24-well plates by plaque reduction assays. Cell monolayers were infected with 100 PFU/well of virus. Then, serial dilutions of test compounds in MEM supplemented with 2% inactivated serum and 0.75% of methyl cellulose were added to the monolayers. Cultures were further incubated at 37° C. for 3 days, then fixed with 50% ethanol and 0.8% Crystal Violet, washed and air-dried. FIG. 7 is a graphical illustration of the results from the Plaque Reduction Assay. FIG. 8 is an image of BVDV plaque formation in the presence of increasing concentrations of β-D-2′-CH3-riboU.
Background: Plaque reduction counts the foci of infection that form in a cell layer.

A further data set concerns BVDV (NADL strain). Put plainly: Yield Reduction Assay. It is filed as cell-based, Bovine Viral Diarrhea virus. As for the experimental part:
The assay was performed as described by Baginski, S. G.; Pevear, D. C.; Seipel, M.; Sun, S. C. C.; Benetatos, C. A.; Chunduru, S. K.; Rice, C. M. and M. S. Collett “Mechanism of action of a pestivirus antiviral compound” PNAS USA 2000, 97(14), 7981-7986, with minor modifications. Briefly, MDBK cells were seeded onto 24-well plates (2×10^5 cells per well) 24 hours before infection with BVDV (NADL strain) at a multiplicity of infection (MOI) of 0.1 PFU per cell. Serial dilutions of test compounds were added to cells in a final concentration of 0.5% DMSO in growth medium. Each dilution was tested in triplicate. After three days, cell cultures (cell monolayers and supernatants) were lysed by three freeze-thaw cycles, and virus yield was quantified by plaque assay. Briefly, MDBK cells were seeded onto 6-well plates (5×10^5 cells per well) 24 h before use. Cells were inoculated with 0.2 mL of test lysates for 1 hour, washed and overlaid with 0.5% agarose in growth medium. After 3 days, cell monolayers were fixed with 3.5% formaldehyde and stained with 1% crystal violet (w/v in 50% ethanol) to visualize plaques. FIG. 9 is a graphical illustration of the results from the Yield Reduction Assay. FIG. 8 is an image of BVDV yield reduction in the presence of increasing concentrations of β-D-2′-CH3-riboC.

The test system of a further data set is YFV-17D. Put plainly: microbe, parasite or virus in culture. It is filed as cell-based, Yellow fever virus vaccine strain 17D.
For data set [5], the system named is PICO (Cosxackie B1 and Polio Sabin). Put plainly: organism not typed. It is filed as cell-based. The conditions noted are these: Vero, read-out: Comparative Antiviral Activity EC50 PICO.
Data set [6] in a line: in vitro. The conditions noted are these: cattle.
Data set [7] is described as follows: in vitro.
Data set [8] relates to Bovine Viral Diarrhea virus (BVDV). Put plainly: microbe, parasite or virus in culture. It is filed as cell-based.
A further data set relates to VSV. Put plainly: microbe, parasite or virus in culture. The conditions noted are these: Vesicular stomatitis virus, read-out: Comparative Antiviral Activity EC50 VSV. It is filed as cell-based.
Another data set relates to HIV-1. Put plainly: Comparative antiviral activity (EC50), HIV-1. The conditions noted are these: Human immunodeficiency virus 1; Table 11. Format: cell-based.
In another data set the test system is HepG2 cells. Description: Mitochondria toxicity assay (L-lactic acid assay). It is filed as cell-based. The conditions noted are these: 4 day drug exposure. As for the experimental part:
HepG2 cells were cultured in 12-well plates as described above and exposed to various concentrations of drugs as taught by Pan-Zhou X-R, Cui L, Zhou X-J, Sommadossi J-P, Darley-Usmer V M. “Differential effects of antiretroviral nucleoside analogs on mitochondrial function in HepG2 cells” Antimicrob Agents Chemother 2000; 44:496-503. Lactic acid levels in the culture medium after 4 day drug exposure was measured using a Boehringer lactic acid assay kit. Lactic acid levels were normalized by cell number as measured by hemocytometer count.

The mark [9] stands for this setting: Huh7 cells (human hepatoma), Huh7 cells.
Setting [10] is: Bovine viral diarrhea virus isolates and strains, 96 h, MDBK cells infected with BVDV, 50% reduction of cytopathic effect, four days, read-out: EC50.
The mark [11] stands for this setting: Bovine viral diarrhea virus isolates and strains, Table 13, BVDV, read-out: Cell Protection (EC50).
[12] abbreviates: Bovine viral diarrhea virus isolates and strains, Table 13, BVDV, 90% virus suppression, read-out: Plaque Reduction (EC90).
The mark [13] stands for this setting: Bovine viral diarrhea virus isolates and strains, Table 13, BVDV.
Where [14] appears, read: Yellow fever virus, read-out: Comparative Antiviral Activity EC50 YFV.
[15] abbreviates: Bovine viral diarrhea virus isolates and strains, read-out: Comparative Antiviral Activity EC50 BVDV.

Read-outs that look alike come from different tables or passages of the source.

By IC50 is commonly meant the concentration at which inhibition is half-maximal. As a reminder, the EC50 is the concentration giving half of the maximal effect. What is called EC90 is the point of the concentration-response curve where the effect stands at 90%. Turning to `NC(=O)c1ncn([C@@H]2O[C@H](CO)[C@@H](O)[C@H]2O)n1` [Ribavirin, reference compound], the IC50 is around 5 µM in data set [1] (Homo sapiens, CFU-GM) and around 1 µM in data set [2] (Bone marrow cell). Moreover, the CC50 at 4 days in data set [3] is 5 µM; in [4] (HepG2 cells (human hepatoma), HepG2 cells, read-out: CC50 HepG2) it was 150 µM; in data set [4] (Huh7 cells (human hepatoma), Huh7 cells, read-out: CC50 Huh7), 25 µM. A half-maximal response in [4] (setting [9]) (EC50 at 4 days) required 20 µM. For the same molecule, the half-maximal effective concentration (EC50) was above 3 µM in the data set with BVDV (strain NADL) (setting [10]), above 3 µM in the data set on BVDV (strain NADL) (setting [11]), 30 µM in the data set on YFV-17D (setting [14]) and above 30 µM in data set [5]. Further, the 90% effect concentration (EC90) was above 200 µM with BVDV (setting [12]) and above 20 µM in the data set on BVDV (NADL strain) (setting [13]). For the same molecule, the “Yield Reduction 6 log10 reduction (μM)” value in the data set on BVDV (NADL strain) is reported as “toxic”. Further, the figures for the CC50 in “in vitro [6]”, in the data set “in vitro [7]” (African green monkey) and in the data set “in vitro [7]” (hamster) were 5 µM, 11 µM and 50 µM, respectively.
In the case of `C[C@@]1(n2cnc3c(N)ncnc32)O[C@H](CO)[C@H](O)C1O` (stereo partly drawn) [β-D-1′-CH3-riboA, 1′-C-methylriboadenine], the EC50 in data set [8] (setting [15]) was 10 µM; in the data set on YFV-17D (setting [14]), 7 µM; in data set [5] it was 51 µM; with VSV, above 100 µM; with HIV-1 it was above 18 µM. For the same molecule, the CC50 is above 100 µM in “in vitro [7]”, above 100 µM in the data set “in vitro [7]” (African green monkey), 200 µM in the data set “in vitro [7]” (hamster) and 18 µM in “in vitro [7]” (human).
Regarding `CC1(O)[C@@H](O)[C@@H](CO)O[C@H]1n1cnc2c(N)ncnc21` (stereo partly drawn) [β-D-2′-CH3-riboA, 2′-C-methylriboadenine], the concentration for half-maximal inhibition (IC50) in data set [1] (Homo sapiens, CFU-GM) is above 100 µM; in data set [2] (Bone marrow cell), above 100 µM. In [4] (setting [9]), this molecule came in with an EC50 at 4 days of 50 µM. The half-maximal effective concentration (EC50) was 2 µM in the data set on BVDV (strain NADL) (setting [10]); 2 µM in the data set on BVDV (strain NADL) (setting [11]); 0.1 µM in data set [8] (setting [15]); 0.2 µM in the data set on YFV-17D (setting [14]); 5 µM in data set [5]; above 100 µM in the data set on VSV. Moreover, the EC50 with HIV-1 was above 6.6 µM. Moreover, the EC90 with BVDV (Bovine viral diarrhea virus isolates and strains, 72 h, concentration to obtain 90% virus suppression, 3 days, read-out: EC90) was below 3 µM; in the data set with BVDV (setting [12]) it was below 3 µM; with BVDV (NADL strain) (setting [13]), below 2 µM. Moreover, the “Conc. for 6-log Reduction” value with BVDV (NADL strain) is on record as 9 μM. Further, the “Yield Reduction 6 log10 reduction (μM)” value in the data set on BVDV (NADL strain) stood at 9 μM. The CC50 amounted to 20 µM in “in vitro [6]”; 75 µM in “in vitro [7]”; 22 µM in “in vitro [7]” (African green monkey); 22 µM in the data set “in vitro [7]” (hamster); 6.6 µM in “in vitro [7]” (human).
Turning to `C[C@@]1(O)[C@H](O)[C@@H](CO)O[C@H]1n1ccc(N)nc1=O` [β-D-2′-CH3-riboC], the concentration for half-maximal inhibition (IC50) in data set [1] (human bone marrow colony formation, 14 to 18 days) was above 10 µM; in data set [2], above 10 µM. In addition, the lactate was 2.52 mg/10^6 cell with HepG2 cells (Conc. 1 μM), 2.36 mg/10^6 cell in the data set with HepG2 cells (Conc. 10 μM), 2.26 mg/10^6 cell in the data set on HepG2 cells (Conc. 50 μM) and 2.21 mg/10^6 cell with HepG2 cells (Conc. 100 μM). Also, the “lactate % of Control” value is given as 115.3% with HepG2 cells (Conc. 1 μM), 107.9% in the data set with HepG2 cells (Conc. 10 μM), 103.4% in the data set with HepG2 cells (Conc. 50 μM) and 101.2% with HepG2 cells (Conc. 100 μM). Besides, the concentration for a half-maximal effect (EC50) in the data set on BVDV (strain NADL) (read-out: Cell Protection (EC50)) is 2 µM; in the data set on BVDV (strain NADL) (read-out: EC50), 2 µM; in data set [8] (read-out: BVDV EC50) it was 3.7 µM; with YFV-17D (Table 12, reduce the plaque number by 50%, YFV-BHK, read-out: YFV EC50), 70 µM. The concentration for an effect of 90% (EC90) in the data set on BVDV (read-out: EC90) is below 9 µM; in the data set with BVDV (read-out: Plaque Reduction (EC90)), below 9 µM; in the data set with BVDV (NADL strain) it was below 4 µM. Moreover, in the data set with BVDV (NADL strain), the “Conc. for 6-log Reduction” value was 20 μM. Moreover, in the data set with BVDV (NADL strain), the “Yield Reduction 6 log10 reduction (μM)” value is reported as 20 μM. In addition, the CC50 is 100 µM in the data set with MDBK cells; above 100 µM in the data set on various cell systems; above 100 µM with various cell systems (read-out: YFV CC50, Table 12, reduce the viability of cells by 50%, YFV-BHK system).
